Legend:
NOMO-1 cells = assay: BETi-resistant NOMO-1 AML cells: proliferation and viability; type: cell-based
Method: A BETi-resistant acute myeloid leukemia (AML) cell line was prepared. NOMO-1 cells were treated with increasing concentrations of (9), and when the population consisted of less than 80% live cells, viable cells were enriched by spinning over Ficoll-Paque (GE Healthcare). At the end of this procedure cells were able to proliferate in the presence of 1 μM (9), and were maintained at this dose, which is about 30-fold higher than their original GI50 (FIG. 6A). The ideal growth conditions for the BETi-tolerant cells appeared to be in the presence of ˜0.1 μM (9). While parental cells induced a robust apoptotic response in response to BETi, resistant cells grown in the presence of BETi only underwent apoptosis when the inhibitor was completely removed (FIG. 6B).
(See e.g., Fernald and Kurokawa. Evading Apoptosis in Cancer. Trends Cell Biol. 2013 December; 23(12): 620-633.) Expression of the pro-apoptotic gene BCL2L11 (encoding BIM) was increased in parental cells upon treatment with BETi (FIG. 6C). The relative expression ratio of BCL2L11/BCL2 correlated with the apoptotic response in parental cells (FIG. 6D). In the resistant cells cultured in the presence of (9), high levels of BIM were maintained (FIG. 6C). […]

[1] = tested on: BET inhibitor resistant A375 cells; assay: Co-treatment of BET inhibitor resistant A375 cells with (9) and ABT-737 for 11 days; type: cell-based, human; settings: resistant A375 cells co-treated with 1 μM (9) and increasing concentrations of ABT-737, 11 days
Method: BCL-xL is targeted by several commercially available BCL-2 family small molecule inhibitors (Billard, C. et al. BH3 mimetics: status of the field and new developments. Mol Cancer Ther. 2013 September; 12(9):1691-700). To test whether pharmacological inhibition of BCL-xL would restore sensitivity to BET inhibition in BET inhibitor resistant A375 cells, parental and resistant cells were co-treated with 1 μM (9) or DMSO and increasing concentrations of the pan-BCL2 inhibitor ABT-737 for 11 days (Ottersdorf, T., et al. An inhibitor of Bcl-2 family proteins induces regression of solid tumours. Nature. 2005 Jun. 2; 435(7042):677-81).

AMO-1 cell line = assay: Sub-G1 (apoptosis) and G0/G1 (G1 arrest) DNA content after 4 days of treatment, flow cytometry; type: cell-based
Method: (§1) Approximately 60 hematological cancer cell lines were profiled, with representative numbers of leukemia, multiple myeloma/plasmacytoma, and lymphoma cell lines. Cells were grown in the presence of BET inhibitors, (9), (10), and (11), for 4 days. Viability was measured using a fluorescent dye (resazurin, Sigma) that measures mitochondrial fitness as a proxy for cell number. Raw fluorescence values at each compound concentration were normalized to the values in the absence of compound, and percentage growth was plotted to determine the concentration of compound at which 50% growth inhibition was achieved (GI50). Cells were then fixed and stained with propidium iodide for flow cytometric determination of cell cycle distribution. The percentage of cells with less than G0/G1 DNA content (% subG1) was used as a measurement of apoptosis. The percentage of viable cells (non-subG1 cells) with G0/G1 DNA content was measured, and the % GI for control cells was subtracted from the % GI at each compound concentration to calculate a percentage increase in G1.
The bottom panels show the dose dependent increase in the percentage of cells with sub-G1 DNA content (apoptosis) and G0/G1 DNA content (G1 arrest) in response to 4 days of treatment with the same BET inhibitors in the AMO-1 cell line.

A375 cells = assay: Growth inhibition (GI50) of A375 cells by BET inhibitor; type: cell-based, human
Method: as §1
The human melanoma cell line A375 is phenotypically sensitive to BET inhibition, with a GI50 of 0.10 μM for (9) (FIG. 3, top panel). To understand possible mechanisms of acquired and de novo resistance to BET inhibition, A375 cells were grown in the presence of 1 μM of (9) for approximately 90 days. […]

[2] = tested on: panel of 245 cell lines of varying lineages; assay: Viability of a panel of 245 cell lines treated with BET inhibitor for 3 or 4 d (Cell Titer Glo or resazurin); type: cell-based
Method: In order to identify predictive biomarkers for phenotypic response to BET inhibition, viability data was obtained for a panel of cell lines for which gene expression data are available. A panel of 245 cell lines of varying lineages (FIG. 7) was treated with the BET bromodomain inhibitor (9) for 3 or 4 d. Viability was assessed using either Cell Titer Glo (Promega) or resazurin (Sigma). GI50 values were determined as the concentration of inhibitor that caused viability to be reduced by 50% relative to the vehicle-treated control cells. Cell lines were defined as “sensitive” if GI50 values were at or below 0.25 μM, and as “insensitive” if GI50 values were above 0.25 μM. […] Where multiple probe sets were available for a given gene, the probe set that hybridized to all transcript variants and gave the largest standard deviation across the panel of cell lines was chosen. Based on the correlations shown in FIGS. 8 and 9, cell lines expressing high levels of BCL2 were defined as those expressing an RMA value of BCL2 within the top 33% of all 245 cell lines. Similarly, cell lines expressing low levels of BCL2L1, BCL2L2, and BAD were defined as those expressing RMA values of these genes within the bottom 33% of all cell lines. […] Further enrichment was obtained by combining criteria, with the highest enrichment obtained by selecting for cell lines with high expression of BCL2 and low expression of BCL2L1 (65%±7% response rate) or high expression of BCL2 and low expression of BAD (75%±6% response rate) (FIG. 11). Similar enrichment of responsive cell lines is obtained when cell lines of hematologic origin are considered separately from those of solid tumor origin (FIG. 12-15).

CC1(C)CCC(CN2CCN(c3ccc(C(=O)NS(=O)(=O)c4ccc(NCC5CCOCC5)c([N+](=O)[O-])c4)c(Oc4cnc5[nH]ccc5c4)c3)CC2)=C(c2ccc(Cl)cc2)C1 [ABT-199, reference compound]
phenotypic sensitivity of resistant cells to BCL2 inhibitor (NOMO-1 cells; resistant NOMO-1 cells, FIG. 6f): increased phenotypic sensitivity

CN(C)CC[C@H](CSc1ccccc1)Nc1ccc(S(=O)(=O)NC(=O)c2ccc(N3CCN(Cc4ccccc4-c4ccc(Cl)cc4)CC3)cc2)cc1[N+](=O)[O-] [ABT-737]
restoration of sensitivity to (9) [1]: restores sensitivity to (9) in a dose-dependent manner

Cc1sc2c(c1C)C(c1ccc(Cl)cc1)=N[C@@H](CC(N)=O)c1nnc(C)n1-2 [(9)]
maximal response (% sub-G1 and G0/G1 DNA content) (AMO-1 cell line): equivalent | maintenance concentration of resistant cells (1 μM) relative to original GI50 (NOMO-1 cells; BETi-resistant NOMO-1 cells proliferating in 1 μM (9)): about 30 fold | shift in GI50 of resistant clones relative to parental cells (A375 cells; A375 clones grown in 1 μM (9) for approximately 90 days, after 11 days): relatively modest shift in GI50 | GI50 (A375 cells; A-375, parental human melanoma cell line A375): 100 nM | overall response rate (fraction of cell lines with GI50 equal to or less than 0.25 μM) ([2]; all 245 cell lines): 28% | response rate (fraction of cell lines with GI50 equal to or less than 0.25 μM) ([2]; cell lines with high expression of BCL2 and low expression of BAD): 75%±6% | response rate (fraction of cell lines with GI50 equal to or less than 0.25 μM) ([2]; cell lines with high expression of BCL2 and low expression of BCL2L1): 65%±7%

Cc1noc2c1-c1ccc(-c3cnn(C)c3)cc1C(c1ccc(Cl)cc1)=N[C@H]2CC(N)=O [(11)]
maximal response (% sub-G1 and G0/G1 DNA content) (AMO-1 cell line): equivalent

Cc1noc2c1-c1ccccc1C(c1ccc(Cl)cc1)=N[C@H]2CC(N)=O [(10)]
maximal response (% sub-G1 and G0/G1 DNA content) (AMO-1 cell line): equivalent
